Consider 24 compounds from PubChem BioAssay AID330 (DTP/NCI, 2004).

Where “and” joins values, the source holds several entries; their conditions need not be identical. Identical values can stand only once. Toxic doses and inconclusive results are not listed.

In this assay the test system is P388 leukemia ip, CD2F1 mice, survival T/C. Kind of assay: NCI In Vivo Anticancer Drug Screen. Data for tumor model P388 Leukemia (intraperitoneal) in CD2F1 (CDF1) mice. The conditions noted are these: endpoint: median survival time, higher = longer survival. Put shortly: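 Mice carrying the transplanted tumor received test compound or vehicle. Survival was recorded in each group, and the value is the treated-group measurement divided by that of the vehicle-treated control group.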

Where [1] appears, read: dose: 60.0 mg/kg/injection, schedule: Q01DX005 (ip), vehicle: saline.
[2] abbreviates: dose: 120.0 mg/kg/injection, schedule: Q01DX005 (ip), vehicle: saline.
[3] abbreviates: dose: 100.0 mg/kg/injection, schedule: Q04DX003 (ip), vehicle: saline with Tween-80.
[4] abbreviates: dose: 200.0 mg/kg/injection, schedule: Q04DX003 (ip), vehicle: saline with Tween-80.
Where [5] appears, read: dose: 25.0 mg/kg/injection, schedule: Q01DX009 (ip), vehicle: saline with Tween-80.
Where [6] appears, read: dose: 100.0 mg/kg/injection, schedule: Q01DX009 (ip), vehicle: saline with Tween-80.
Where [7] appears, read: dose: 200.0 mg/kg/injection, schedule: Q01DX009 (ip), vehicle: saline with Tween-80.
The mark [8] stands for this setting: dose: 60.0 mg/kg/injection, schedule: Q01DX005 (ip), vehicle: saline with Tween-80.
Where [9] appears, read: dose: 120.0 mg/kg/injection, schedule: Q01DX005 (ip), vehicle: saline with Tween-80.
Where [10] appears, read: dose: 50.0 mg/kg/injection, schedule: Q01DX009 (ip), vehicle: suspension in saline.
[11] abbreviates: dose: 100.0 mg/kg/injection, schedule: Q01DX009 (ip), vehicle: suspension in saline.
[12] abbreviates: dose: 50.0 mg/kg/injection, schedule: Q01DX005 (ip), vehicle: Klucel (hydroxypropylcellulose) (HPC).
Setting [13] is: dose: 100.0 mg/kg/injection, schedule: Q01DX005 (ip), vehicle: Klucel (hydroxypropylcellulose) (HPC).
Setting [14] is: dose: 200.0 mg/kg/injection, schedule: Q01DX005 (ip), vehicle: Klucel (hydroxypropylcellulose) (HPC).
Setting [15] is: dose: 50.0 mg/kg/injection, schedule: Q01DX009 (ip), vehicle: saline.
Setting [16] is: dose: 100.0 mg/kg/injection, schedule: Q01DX009 (ip), vehicle: saline.
Setting [17] is: dose: 50.0 mg/kg/injection, schedule: Q01DX005 (ip), vehicle: saline with Tween-80.
Where [18] appears, read: dose: 100.0 mg/kg/injection, schedule: Q01DX005 (ip), vehicle: saline with Tween-80.

As for `COc1ccc(C(CN2CCOCC2)C(C)=O)cc1OC` (centres undefined), the T/C is, setting by setting: under setting [1], 101 % of control; under setting [2], 101 % of control; (dose: 240.0 mg/kg/injection, schedule: Q01DX005 (ip), vehicle: saline) 101 % of control.
Take `COc1ccc(CSCc2c(CSCc3ccc(OC)c(OC)c3)c(CSCc3ccc(OC)c(OC)c3)c(CSCc3ccc(OC)c(OC)c3)c(CSCc3ccc(OC)c(OC)c3)c2CSCc2ccc(OC)c(OC)c2)cc1OC`: the T/C runs as follows: under setting [3], 96 % of control; under setting [4], 90 % of control; (dose: 400.0 mg/kg/injection, schedule: Q04DX003 (ip), vehicle: saline with Tween-80) 102 % of control.
As to `O=[N+]([O-])c1ccccc1-c1ccccc1N=Cc1ccccc1`, the T/C was 96 % of control (dose: 6.25 mg/kg/injection, schedule: Q01DX009 (ip), vehicle: saline with Tween-80); 106 % of control (dose: 12.5 mg/kg/injection, schedule: Q01DX009 (ip), vehicle: saline with Tween-80); 86 % of control under setting [5].
In the case of `CCCCC(CC)COCCCNCC(=O)O` (centres undefined), the T/C is 102 % of control under setting [1] and 107 % of control under setting [2].
Take `c1ccc(-c2nnc3ccccc3n2)cc1`: the T/C by setting is: under setting [5], 99 % of control; (dose: 50.0 mg/kg/injection, schedule: Q01DX009 (ip), vehicle: saline with Tween-80) 98 % of control; under setting [6], 98 % of control; under setting [7], 93 % of control.
Take `COc1cc2c3cc1Oc1c(O)c(OC)cc4c1[C@H](Cc1ccc(O)c(c1)Oc1ccc(cc1)C[C@H]3N(C)CC2)N(C)CC4`: for the setting “dose: 37.5 mg/kg/injection, schedule: Q01DX009 (ip), vehicle: Klucel (hydroxypropylcellulose) (HPC)”, the T/C was 98 % of control.
Consider `CCN(CC)P(=O)(N1CC1C)N1CC1C` (centres undefined), for which the T/C (dose: 33.0 mg/kg/injection, schedule: Q04DX003 (ip), vehicle: saline) is 109 % of control and the T/C (dose: 75.0 mg/kg/injection, schedule: Q04DX003 (ip), vehicle: saline) was 150 % of control.
Regarding `C/C(CCn1[nH]c(=O)ccc1=O)=N\NS(=O)(=O)c1ccc(C)cc1`, the T/C runs as follows: under setting [8], 103 % of control; under setting [9], 109 % of control; (dose: 134.0 mg/kg/injection, schedule: Q01DX005 (ip), vehicle: saline with Tween-80) 105 % of control.
Take `COC(=O)C1Cc2c([nH]c3ccccc23)C(C)(C)N1` (centres undefined): the T/C by setting is: (dose: 25.0 mg/kg/injection, schedule: Q01DX009 (ip), vehicle: suspension in saline) 99 % of control; under setting [10], 93 % of control; under setting [11], 93 % of control.
Consider `Cl/C(=C\c1ccccc1)c1nc2ccccc2nc1Cl`, for which the T/C by setting is: (dose: 50.0 mg/kg/injection, schedule: Q01DX009 (ip), vehicle: Klucel (hydroxypropylcellulose) (HPC)) 96 % of control; (dose: 100.0 mg/kg/injection, schedule: Q01DX009 (ip), vehicle: Klucel (hydroxypropylcellulose) (HPC)) 89 % of control; (dose: 200.0 mg/kg/injection, schedule: Q01DX009 (ip), vehicle: Klucel (hydroxypropylcellulose) (HPC)) 92 % of control.
Turning to `O=C(O)c1cccc([N+](=O)[O-])c1C(=O)O`, the T/C is, setting by setting: (dose: 25.0 mg/kg/injection, schedule: Q04DX003 (ip), vehicle: saline with Tween-80) 103 % of control; (dose: 50.0 mg/kg/injection, schedule: Q04DX003 (ip), vehicle: saline with Tween-80) 108 % of control; under setting [3], 103 % of control; under setting [4], 94 % of control.
For the compound `CN(CCC#N)c1ccc(/C=C(\C#N)c2cccc(C(F)(F)F)c2)cc1`, the T/C is 105 % of control under setting [12], 90 % of control under setting [13] and 96 % of control under setting [14].
For `CCC1(O)CCC2C3CC=C4CCCCC4C3CCC21C` (centres undefined), the T/C is 107 % of control under setting [15]; 100 % of control under setting [16]; 100 % of control (dose: 200.0 mg/kg/injection, schedule: Q01DX009 (ip), vehicle: saline).
With `Nc1nc(N)nc(N)n1`, the T/C reads like this: under setting [6], 106 % of control; under setting [7], 107 % of control; (dose: 400.0 mg/kg/injection, schedule: Q01DX009 (ip), vehicle: saline with Tween-80) 99 % of control; (dose: 800.0 mg/kg/injection, schedule: Q01DX009 (ip), vehicle: saline with Tween-80) 96 % of control.
For `Nc1ccc[nH]c1=O`, the T/C runs as follows: (dose: 12.5 mg/kg/injection, schedule: Q01DX009 (ip), vehicle: saline) 100 % of control and 113 % of control; (dose: 25.0 mg/kg/injection, schedule: Q01DX009 (ip), vehicle: saline) 103 % of control; under setting [15], 98 % of control and 103 % of control; under setting [16], 103 % of control and 113 % of control; (dose: 400.0 mg/kg/injection, schedule: Q01DX009 (ip), vehicle: saline) 100 % of control.
Take `O=[N+]([O-])c1ccc(/C(=C/c2ccc(F)cc2)S(=O)(=O)c2ccccc2)o1`: the T/C is, setting by setting: under setting [10], 97 % of control; under setting [11], 88 % of control.
As for `CC1=NN(c2ccccc2)C/C1=N\O`, the T/C under setting [12] was 103 % of control and the T/C under setting [13] was 102 % of control.
Take `COc1ccc2c(=O)cc[nH]c2c1OC`: the T/C reads like this: under setting [17], 100 % of control; under setting [18], 94 % of control; (dose: 200.0 mg/kg/injection, schedule: Q01DX005 (ip), vehicle: saline with Tween-80) 94 % of control.
Consider `COC(=O)C1C(=O)COC1C` (centres undefined), for which the T/C by setting is: (dose: 50.0 mg/kg/injection, schedule: Q01DX005 (ip), vehicle: saline) 102 % of control; (dose: 200.0 mg/kg/injection, schedule: Q01DX005 (ip), vehicle: saline) 102 % of control.
Turning to `CCCCCCCCCCCC(O)CCCCC` (centres undefined), the T/C (dose: 100.0 mg/kg/injection, schedule: Q04DX003 (ip), vehicle: other) is 100 % of control; the T/C (dose: 200.0 mg/kg/injection, schedule: Q04DX003 (ip), vehicle: other) is 100 % of control; the T/C (dose: 400.0 mg/kg/injection, schedule: Q04DX003 (ip), vehicle: other) was 100 % of control.
Turning to `Cc1nc(N(C)C)[nH]c(=O)c1N=Nc1ccc(Cl)cc1`, the T/C is 105 % of control under setting [12], 114 % of control under setting [13] and 105 % of control under setting [14].
Turning to `NC(CCS)C(=O)O` (centres undefined), the T/C under setting [17] was 90 % of control and the T/C under setting [18] was 92 % of control.
Consider `COC(=O)C1OC(SC(=N)N)C(OC(C)=O)C(OC(C)=O)C1OC(C)=O` (centres undefined), for which the T/C is 101 % of control (dose: 12.5 mg/kg/injection, schedule: Q01DX009 (ip), vehicle: water); 109 % of control (dose: 25.0 mg/kg/injection, schedule: Q01DX009 (ip), vehicle: water); 107 % of control and 117 % of control (dose: 50.0 mg/kg/injection, schedule: Q01DX009 (ip), vehicle: water).
With `Cc1ccc(S(=O)(=O)CC(=O)CC(=O)C(=O)Nc2ccc(C)cc2C)cc1`, the T/C reads like this: under setting [8], 108 % of control; under setting [9], 106 % of control; (dose: 240.0 mg/kg/injection, schedule: Q01DX005 (ip), vehicle: saline with Tween-80) 99 % of control.
